# Assays:
# Sphingosine kinase 2 [1] = biological target: T1, Sphingosine kinase 2 (Homo sapiens, UniProt Q9NRA0); experiment: Inhibition of SphK2 (unknown origin)
# T1 sequence (Q9NRA0 whole entry): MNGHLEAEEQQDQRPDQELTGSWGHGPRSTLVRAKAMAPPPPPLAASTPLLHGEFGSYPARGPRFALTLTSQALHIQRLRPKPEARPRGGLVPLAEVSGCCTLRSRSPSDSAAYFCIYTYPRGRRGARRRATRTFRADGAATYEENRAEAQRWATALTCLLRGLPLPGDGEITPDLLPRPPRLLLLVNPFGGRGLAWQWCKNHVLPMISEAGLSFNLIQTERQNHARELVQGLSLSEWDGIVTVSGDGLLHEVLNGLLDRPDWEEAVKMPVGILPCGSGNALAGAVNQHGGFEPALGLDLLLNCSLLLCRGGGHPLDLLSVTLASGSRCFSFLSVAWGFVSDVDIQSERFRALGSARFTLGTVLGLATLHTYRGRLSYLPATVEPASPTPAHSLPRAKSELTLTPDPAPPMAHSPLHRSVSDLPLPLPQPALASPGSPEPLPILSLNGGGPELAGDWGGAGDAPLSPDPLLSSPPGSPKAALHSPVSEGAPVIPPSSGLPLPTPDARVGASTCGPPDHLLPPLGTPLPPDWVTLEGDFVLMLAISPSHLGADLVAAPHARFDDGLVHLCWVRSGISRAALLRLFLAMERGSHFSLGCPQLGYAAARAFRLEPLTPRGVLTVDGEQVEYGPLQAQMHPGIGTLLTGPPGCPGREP
# Homo sapiens = organism: Homo sapiens; experiment: Selectivity ratio for SphK1 (unknown origin) over SphK2 (unknown origin)
# Sphingosine kinase 2 [2] = biological target: T1, Sphingosine kinase 2; experiment: Competitive inhibition of V5-His-tagged human SphK2 expressed in HEK293 cells assessed as S1P production using sphingosine and [gamma-32P]ATP as substrate by thin layer chromatography; format: cell-based
# Sphingosine kinase 2 [3] = biological target: T1, Sphingosine kinase 2; experiment: Inhibition of SphK2 (unknown origin) using sphingosine and [gamma-32P]ATP as substrate
Ki (Sphingosine kinase 2 [1]) [µM],SMILES,Selectivity ratio (Homo sapiens),other results
12,CCCCCCCCCCCCC/C=C/[C@@H](O)[C@H](CO)N(C)C [DIMETHYLSPINGOSINE],–,–
–,CCCCCCCCc1ccc(CCN2CCCC(O)C2)cc1 (stereo unspecified),6.1,–
–,CCCCCCCCc1ccc(CCN2CCC(O)CC2)cc1,15,–
27,CCCCCCCCc1ccc(CC[C@@](N)(CO)COC)cc1,–,–
–,CCCCCc1ccc(/C=C/[C@H](O)[C@@H](CO)NC)cc1,–,IC50 (Sphingosine kinase 2 [2]): 10 µM
–,CCCCOc1ccc(CC/C=C2\SC(=O)N(CCN)C2=O)cc1,–,Ki (Sphingosine kinase 2 [3]): 4.3 µM

# Source: ChEMBL document CHEMBL3286280, “Importance of sphingosine kinase (SphK) as a target in developing cancer therapeutics and recent developments in the synthesis of novel SphK inhibitors” (J Med Chem, 2014)
